From patent US7972645B2, “Dioscorea extracts for enhancing immune system” (Academia Sinica, priority 2003, dated 2011)

System: NF-κB-inducible ELAM-1 composite promoter
Test: NF-κB-inducible ELAM-1 composite promoter reporter (SEAP) assay in transfected B16 melanoma cells
Type: cell-based
Conditions: Polymyxin B 400 U
Description: Briefly, B16 melanoma cells were transfected with a vector carrying the human secreted embryonic alkaline phosphatase (SEAP) gene, whose expression is under the control of a NF-κB-inducible ELAM-1 composite promoter, using a standard method for reporter (SEAP) assay. B16 melanoma cells were transfected with the NF-kB-inducible reporter plasmid pNiFty-SEAP (InvivoGen) in the presence of lipofectin (Invitrogen) for 24 hours. The SEAP secreted into medium was measured according to the manufacturer's instructions (Phospha-Light™ System, Applied Biosystems).
The transfected cells were then incubated with DsCE-I before the chemiluminescent reporter gene assays were conducted. It was known that LPS increased the activity of NF-κB and p38MAPK was involved in the LPS-induced activation. Therefore, LPS (0.1 μg/ml) was used as a positive control (Group A) and the corresponding […] was normalized as 100%. To illustrate the specificity, the effects of inhibitors of the LPS-induced activation were also examined. These inhibitors included SB203580 (“SB,” a p38MAPK inhibitor), PDTC (“PD,” a NF-κB inhibitor), and Polymyxin B (“PB,” an LPS-binding antibiotic). The solvent used to prepare the reagents was used as a negative control (Group J).

For Polymyxin B, the “Inhibition of DsCE-I-induced activation (in words)” value (DsCE-I 100 μg/ml) was “only partially inhibited” and the “Inhibition of LPS-induced activation (in words)” value (LPS 0.1 μg/ml) was “inhibited LPS-induced activation completely”.
